Results on 17 compounds are retold here after patent US9918964B2, “Reducing platelet activation, aggregation and platelet-stimulated thrombosis or blood coagulation by reducing mitochondrial respiration” (priority 2010, dated 2018).

The test system of assay [1] is mitochondria isolated from liver of tilapia (Sarotheridon mossambica). It is filed as biochemical.
Assay [2] has the same test system. It is filed as biochemical. This is another data set of the same source.
A further assay concerns platelets in whole blood. In words: Platelet function testing with the Hemostasis Mechanism Analyzer (HMA): clumping, sticking, clotting in whole blood. The format is cell-based, human. Conditions: for activity at 3300 µg/mL / activity at 5000 µg/mL / activity at 6700 µg/mL / activity at 700 µg/mL / activity at 1300 µg/mL / activity at 2700 µg/mL / activity at 5300 µg/mL / activity at 10700 µg/mL / activity at 670 µg/mL / activity at 11700 µg/mL / activity at 23300 µg/mL: Homo sapiens, Platelet; for activity at 700 µg/mL: Dosage (mg/ml) 0.7; for activity at 1300 µg/mL: Dosage (mg/ml) 1.3; for activity at 2700 µg/mL: Dosage (mg/ml) 2.7; for activity at 5300 µg/mL: Dosage (mg/ml) 5.3; for activity at 10700 µg/mL: Dosage (mg/ml) 10.7; for activity at 11700 µg/mL: Dosage (mg/ml) 11.7; for activity at 23300 µg/mL: Dosage (mg/ml) 23.3.

Where [3] appears, read: in vitro whole blood assay, clumping, sticking, clotting.
Setting [4] is: read-out: % clump time increase.
Setting [5] is: read-out: % stick time increase.
Setting [6] is: 0 dosage = 100, read-out: % clot time increase.
Setting [7] is: 0 dosage = 100, read-out: % clump time increase.
Setting [8] is: 0 dosage = 100, read-out: % stick time increase.
Setting [9] is: Dosage (mg/ml) 3.3, 0 dosage = 100, read-out: % clot time increase.
The mark [10] stands for this setting: Dosage (mg/ml) 3.3, 0 dosage = 100, read-out: % clump time increase.
Where [11] appears, read: Dosage (mg/ml) 3.3, 0 dosage = 100, read-out: % stick time increase.
[12] abbreviates: Dosage (mg/ml) 6.7, 0 dosage = 100, read-out: % clot time increase.
[13] abbreviates: Dosage (mg/ml) 6.7, 0 dosage = 100, read-out: % clump time increase.
Where [14] appears, read: Dosage (mg/ml) 6.7, 0 dosage = 100, read-out: % stick time increase.
Where [15] appears, read: Dosage (mg/ml) 5, 0 dosage = 100, read-out: % clot time increase.
The mark [16] stands for this setting: Dosage (mg/ml) 5, 0 dosage = 100, read-out: % clump time increase.
The mark [17] stands for this setting: Dosage (mg/ml) 5, 0 dosage = 100, read-out: % stick time increase.

In brackets after ≈: the same amount, converted by molar mass. Like-named read-outs stand apart in the source and are kept apart here.

For `Nc1nnn[nH]1` [Compound 34, 1H-tetrazol-5-amine], the “IC50 (mg/ml) mitochondria inhibition” value in assay [1] is 8.5 mg/mL (≈ 99.9 mM). Also, the “Reversible?” value in assay [2] is “reversible and Yes”.

Consider `Brc1nn[nH]c1Br` [Compound 48, 4,5-dibromo-1H-triazole], for which the “IC50 (mg/ml) mitochondria inhibition” value in assay [1] amounted to 30 mg/mL (≈ 132 mM). Further, the “Reversible?” value in assay [2] is “reversible and Yes”. The “activity in the platelet assays (active agent or inactive)” value (shortened to “activity in the platelet assays”) in the assay on platelets in whole blood (setting [3]) was “met the criteria for active agents”.

With `Cc1ncsc1CCOC(=O)C[P+](c1ccccc1)(c1ccccc1)c1ccccc1.[Br-]` [Compound 49, [2-[2-(4-methylthiazol-5-yl)ethoxy]-2-oxo-ethyl]-triphenyl-phosphonium bromide], the “IC50 (mg/ml) mitochondria inhibition” value in assay [1] stood at 8.8 mg/mL. For the same compound, the “Reversible?” value in assay [2] is “irreversible and No”. Moreover, in the assay on platelets in whole blood, the “activity in the platelet assays” value is “significantly reduced platelet activity or aggregation”.

In the case of `Clc1nnnn1-c1ccccc1` [Compound 54, 5-chloro-1-phenyl-tetrazole], the “IC50 (mg/ml) mitochondria inhibition” value in assay [1] was 12.5 mg/mL (≈ 69.2 mM). In the assay with platelets in whole blood (setting [3]), the “activity in the platelet assays” value is “inactive”.

On to `NC(=O)c1nn[nH]n1` [Compound 71, 2H-tetrazole-5-carboxamide], for which the “IC50 (mg/ml) mitochondria inhibition” value in assay [1] was determined as 36.3 mg/mL (≈ 321 mM). In addition, in the assay on platelets in whole blood (read-out: % clot time increase), the activity at 3300 µg/mL came out at 112%, the activity at 5000 µg/mL amounted to 122% and the activity at 6700 µg/mL is 137%. In the assay on platelets in whole blood (setting [4]), the activity at 3300 µg/mL turned out to be 126%, the activity at 5000 µg/mL was found to be 171% and the activity at 6700 µg/mL stood at 236%. For the same compound, in the assay on platelets in whole blood (setting [5]), the activity at 3300 µg/mL was determined as 116%, the activity at 5000 µg/mL came to 153% and the activity at 6700 µg/mL is 205%.

For the compound `Cc1cscn1` [Compound 75, 4-methylthiazole], in assay [1], the “IC50 (mg/ml) mitochondria inhibition” value worked out at 40.6 mg/mL (≈ 409 mM). For the same compound, in the assay with platelets in whole blood (setting [6]), the activity at 700 µg/mL was determined as 103%, the activity at 1300 µg/mL is 106%, the activity at 2700 µg/mL was 108% and the activity at 5300 µg/mL stood at 114%. Besides, the activity at 10700 µg/mL in the assay with platelets in whole blood (setting [6]) was found to be 122%. In addition, in the assay with platelets in whole blood (setting [7]), the activity at 700 µg/mL came out at 115%, the activity at 1300 µg/mL amounted to 109%, the activity at 2700 µg/mL turned out to be 126% and the activity at 5300 µg/mL came to 136%. Moreover, in the assay with platelets in whole blood (setting [7]), the activity at 10700 µg/mL came to 164%. For the same compound, in the assay with platelets in whole blood (setting [8]), the activity at 700 µg/mL amounted to 106%, the activity at 1300 µg/mL turned out to be 102%, the activity at 2700 µg/mL was 123% and the activity at 5300 µg/mL was determined as 132%. Also, the activity at 10700 µg/mL in the assay with platelets in whole blood (setting [8]) is 155%.

Take `Cc1nnn[nH]1` [Compound 76, 5-methyl-1H-tetrazole]: the “IC50 (mg/ml) mitochondria inhibition” value in assay [1] is 12.6 mg/mL (≈ 150 mM). In the assay on platelets in whole blood (read-out: % clot time increase), the activity at 670 µg/mL was found to be 91%, the activity at 3300 µg/mL is 120% and the activity at 6700 µg/mL came to 301%. Besides, in the assay on platelets in whole blood (setting [4]), the activity at 670 µg/mL is 129% and the activity at 3300 µg/mL amounted to 209%. Moreover, in the assay with platelets in whole blood (setting [5]), the activity at 670 µg/mL is 125%, the activity at 3300 µg/mL amounted to 217% and the activity at 6700 µg/mL worked out at 983%.

For the compound `OCc1c[nH]c2ccccc12` [Compound 77, 1H-indol-3-ylmethanol], the “IC50 (mg/ml) mitochondria inhibition” value in assay [1] is 82.8 mg/mL (≈ 563 mM). Besides, the activity at 700 µg/mL in the assay on platelets in whole blood (setting [6]) was 102%; in the assay with platelets in whole blood (setting [7]) it was 95%; in the assay with platelets in whole blood (setting [8]) it was 92%. Besides, the activity at 3300 µg/mL in the assay on platelets in whole blood (setting [9]) was 104%; in the assay on platelets in whole blood (setting [10]), 81%; with platelets in whole blood (setting [11]), 86%. The activity at 6700 µg/mL with platelets in whole blood (setting [12]) worked out at 105%; in the assay on platelets in whole blood (setting [13]), 109%; in the assay on platelets in whole blood (setting [14]), 97%. The results for the activity at 11700 µg/mL with platelets in whole blood (setting [6]), in the assay with platelets in whole blood (setting [7]) and in the assay with platelets in whole blood (setting [8]) were 108%, 116% and 114%, respectively. Moreover, the activity at 23300 µg/mL in the assay on platelets in whole blood (setting [6]) stood at 126%; in the assay with platelets in whole blood (setting [7]), 140%; with platelets in whole blood (setting [8]), 100%. In addition, in the assay on platelets in whole blood (setting [3]), the “activity in the platelet assays” value was “met the criteria for active agents”.

On to `CCOC(=O)Cc1nnn[nH]1` [Compound 80, ethyl 2-(1H-tetrazol-5-yl)acetate], for which, in assay [1], the “IC50 (mg/ml) mitochondria inhibition” value is 100 mg/mL (≈ 640 mM). Further, the activity at 3300 µg/mL in the assay on platelets in whole blood (setting [9]) turned out to be 110%; in the assay with platelets in whole blood (setting [10]), 107%; with platelets in whole blood (setting [11]), 104%. In addition, the activity at 5000 µg/mL worked out at 121% with platelets in whole blood (setting [15]), 143% in the assay with platelets in whole blood (setting [16]) and 141% in the assay with platelets in whole blood (setting [17]). Further, the values for the activity at 6700 µg/mL in the assay with platelets in whole blood (setting [12]), with platelets in whole blood (setting [13]) and in the assay with platelets in whole blood (setting [14]) were 133%, 207% and 209%, respectively.

As for `c1cncnc1` [Compound 81, pyrimidine], the “IC50 (mg/ml) mitochondria inhibition” value in assay [1] came to 51.5 mg/mL (≈ 643 mM). The “activity in the platelet assays” value in the assay on platelets in whole blood (setting [3]) was “inactive”.

On to `O=C(O)Cc1nnn[nH]1` [Compound 82, 2-(1H-tetrazol-5-yl)acetic acid], for which, in assay [1], the “IC50 (mg/ml) mitochondria inhibition” value worked out at 11.8 mg/mL (≈ 92.1 mM). The activity at 3300 µg/mL came out at 137% in the assay on platelets in whole blood (setting [9]), 240% with platelets in whole blood (setting [10]) and 222% with platelets in whole blood (setting [11]). Moreover, the activity at 5000 µg/mL in the assay with platelets in whole blood (setting [15]) stood at 217%; with platelets in whole blood (setting [16]) it was 755%; in the assay with platelets in whole blood (setting [17]) it was 601%.

`CSc1nnn[nH]1` [Compound 83, 5-methylsulfanyl-1H-tetrazole]: the “IC50 (mg/ml) mitochondria inhibition” value in assay [1] is 14.5 mg/mL (≈ 125 mM). Moreover, the “Reversible?” value in assay [2] is “reversible and Yes”. Besides, the activity at 3300 µg/mL amounted to 127% in the assay on platelets in whole blood (setting [9]), 167% in the assay with platelets in whole blood (setting [10]) and 157% with platelets in whole blood (setting [11]). The activity at 5000 µg/mL with platelets in whole blood (setting [15]) was determined as 191%; in the assay on platelets in whole blood (setting [16]), 584%; in the assay with platelets in whole blood (setting [17]), 512%. Also, in the assay on platelets in whole blood (setting [12]), the activity at 6700 µg/mL was determined as 297%.

With `Sc1ncc[nH]1` [Compound 84, 1H-imidazole-2-thiol], in assay [1], the “IC50 (mg/ml) mitochondria inhibition” value was 17.3 mg/mL (≈ 173 mM). Moreover, the activity at 6700 µg/mL in the assay on platelets in whole blood (setting [12]) is 99%; with platelets in whole blood (setting [13]) it was 113%; with platelets in whole blood (setting [14]), 105%. The activity at 11700 µg/mL in the assay with platelets in whole blood (setting [6]) stood at 110%; in the assay with platelets in whole blood (setting [7]) it was 121%; in the assay on platelets in whole blood (setting [8]), 111%. Further, the results for the activity at 23300 µg/mL in the assay on platelets in whole blood (setting [6]), in the assay with platelets in whole blood (setting [7]) and with platelets in whole blood (setting [8]) were 128%, 149% and 142%, respectively. Also, the “activity in the platelet assays” value in the assay with platelets in whole blood (setting [3]) is listed as “met the criteria for active agents”.

`Cn1c(-c2ccccc2)c[nH]c1=S` [Compound 91, 3-methyl-4-phenyl-1H-imidazole-2-thione]: in assay [1], the “IC50 (mg/ml) mitochondria inhibition” value is 5.4 mg/mL (≈ 28.4 mM). Besides, the “activity in the platelet assays” value in the assay on platelets in whole blood (setting [3]) is “inactive”.

On to `Cc1ncsc1C` [Compound 92, 4,5-dimethylthiazole], for which the “IC50 (mg/ml) mitochondria inhibition” value in assay [1] stood at 50.9 mg/mL (≈ 450 mM). Moreover, the activity at 700 µg/mL was found to be 100% with platelets in whole blood (setting [6]), 112% in the assay on platelets in whole blood (setting [7]) and 118% in the assay on platelets in whole blood (setting [8]). The activity at 3300 µg/mL amounted to 101% with platelets in whole blood (setting [9]), 176% in the assay on platelets in whole blood (setting [10]) and 171% with platelets in whole blood (setting [11]). The activity at 6700 µg/mL is 106% in the assay with platelets in whole blood (setting [12]), 195% in the assay with platelets in whole blood (setting [13]) and 179% with platelets in whole blood (setting [14]). Further, the activity at 11700 µg/mL in the assay on platelets in whole blood (setting [6]) was 126%; in the assay with platelets in whole blood (setting [7]), 224%; in the assay with platelets in whole blood (setting [8]) it was 211%. The activity at 23300 µg/mL with platelets in whole blood (setting [6]) was determined as 162%; in the assay with platelets in whole blood (setting [7]), 717%; in the assay on platelets in whole blood (setting [8]), 546%.

For `Cc1cncs1` [Compound 94, 5-methylthiazole], in assay [1], the “IC50 (mg/ml) mitochondria inhibition” value turned out to be 23.5 mg/mL (≈ 237 mM). Besides, in assay [2], the “Reversible?” value was “reversible and Yes”.

On to Thiazole [Compound 47], for which, in assay [1], the “IC50 (mg/ml) mitochondria inhibition” value was 21.3 mg/mL. Further, the “Reversible?” value in assay [2] is “reversible and Yes”. In addition, the “activity in the platelet assays” value in the assay on platelets in whole blood was “inactive”.
